Series [1] is described as follows: Clearance rate constant of labelled tracer by external ambulatory renal monitor. The format is in vivo. Conditions: patient in intensive care unit, initial (moderately decreased renal function). How it is done: A more detailed description of an example of a renal function monitor follows, in which clearance of a radiolabelled injected substance was measured according to the detected radiation according to the invention. The performance of the apparatus was tested by comparison with results obtained using standard techniques.
Data collection was performed using a battery-operated, pocket-size lightweight data logger having 32K total RAM (Tattletale, Model V, Onset Computer Corp., N. Falmouth, Mass.). The detector was a 16 mm diameter×2 mm thick cadmium-telluride (Cd-Te) detector (Radiation Monitoring Devices, Watertown, Mass.) connected to a preamplifier and a lower level discriminator. […]
The usual diet was not altered. Weight and height were measured soon after arrival at the treatment facility. […]
To determine the value of the invention for monitoring of renal function, two patients at risk of ARF with serum creatinine ≥2 mg/dl were monitored before, during and after an angiographic procedure. […] The rate constant, as measured according to the invention, decreased in this patient from 2.85×10^-3 min^-1 to 0.2×10^-3 min^-1; and the serum creatinine in this patient increased from 2.4 to 2.8 mg/dl over the succeeding 12 hours.
The rate of clearance of ^99m Tc-DTPA was also monitored in a patient in an intensive care unit. […]

For series [2] the following is noted: human, in vivo; cited from earlier work.

SMILES strings stand for the structures.

Turning to `O=C([O-])CN(CCN(CC(=O)[O-])CC(=O)[O-])CCN(CC(=O)[O-])CC(=O)[O-].[99Tc+4]` [^99m Tc-DTPA], the rate constant in series [1] turned out to be 0.0035 min⁻¹. Moreover, the “rate constant (Normal)” value in series [2] is 0.0065 min⁻¹.
